From US20160031909A1, “PORPHYRAZINE OPTICAL AND DUAL OPTICAL/ MR CONTRAST AND THERAPEUTIC AGENTS” (HOFFMAN/BARRETT, LLC, priority 2013, published 2016)
“Also recorded” adds a separate entry of the source. Like-named read-outs stand apart in the source and are kept apart here.

Key:
[1] = Octanol-water partition coefficients by ICP-MS; type: physicochemical; details: 1:1 water:1-octanol, 48 hours, Gd by ICP-MS
Procedure: Octanol-water partition coefficients (log P) were measured by ICP-MS to determine the hydrophilicity of the Pz-Gd(III) conjugates (4d, 18). The hydrophilicity of a molecule dictates cellular permeability where a balance in amphiphilicity is desired for ease of aqueous administration and maximum cellular uptake (19). Cu-Pz-Gd(III) is slightly more hydrophobic than Zn-Pz-Gd(III) and both conjugates are more hydrophobic than DOTA-Gd(III).
DOTA-Gd(I I I), Zn-Pz-Gd(III), and Cu-Pz-Gd(III) (0.5 mg) were dissolved in 1 mL of a 1:1 mixture of water:1-octanol, respectively. After shaking for 30 seconds, these tubes were placed on a rotator for gentle mixing to equilibrate for 48 hours. Gd(III) concentration in each layer was determined by ICP-MS. Partition coefficients were calculated from the equation log P=log(Co/Cw), where log P is the logarithm of the partition coefficient, Co is the concentration of Gd in the 1-octanol layer, and Cw is the concentration of Gd in the water layer.

[2] = monomeric DOTA-Gd(III), shown for comparison (ref 17), cited from earlier work
[3] = test system: MDA-MB-231 orthotopic breast tumor; assay: In vivo tumor MRI in orthotopic breast tumor model; set-up: species or system athymic nude mice; details: 0-225 min after tail vein injection; Cu-Pz-Gd(III) 450 nmol (50 mg/kg), DOTA-Gd(III) 900 nmol (25 mg/kg)
Procedure: Cu-Pz-Gd(III) was examined as a contrast agent in vivo in an orthotopic breast tumor model in athymic nude mice. MDA-MB-231 breast tumor cells expressing mCherry fluorescent protein were implanted in the mammary fat pad of mice and tumors were allowed to grow to about 5 mm in diameter at which time mice were treated with 450 nmol (50 mg/kg) Cu-Pz-Gd(III) together with saline treated control mice (FIG. 3A).
In a separate experiment focusing only on short time points (0-225 min), groups of mice (n=3) were treated with Cu-Pz-Gd(III) (450 nmol, 50 mg/kg), DOTA-Gd(I I I) (900 nmol, 25 mg/kg), and saline as a negative control (FIG. 4). Mice were imaged continuously after tail vein injections. […] Regions of interest (ROIs) were defined outside the periphery of tumors, at the inner rim, and at the center.
MDA-MB-231 cells (1×10^6) expressing mCherry fluorescent protein were inoculated subcutaneously (1:1 v/v matrigel:PBS) on the right mammary fat pad. Cells were maintained in DMEM media supplemented with 10% FBS prior to inoculation. The athymic nude mice, Crl:NU(NCr)-Foxnl^nm, were purchased from Charles River, Portage at 5-6 weeks old and 16-18 gram were allowed to acclimate for 5 days. One week post inoculation, each animal was screened for mCherry fluorescence wavelength using the IVIS small animal fluorescence imaging system to verify presence of the tumor.
Mice were anesthetized in an induction chamber with 3% inhaled isoflurane in oxygen, then transferred to an imaging bed with circulating warm water heating system, MRI compatible respiratory monitoring (SA Instruments, Stony Brook, N.Y.) and 1-2% isoflurane delivered via nosecone to maintain a surgical plane of anesthesia with respiratory rate at 90-100 breaths/min Mice were imaged prone with the tumor centered in a 40 mm diameter quadrature volume coil (Bruker Biospec, Billerica, Mass.). An AutoPac automated positioning system was used to reproducibly center the animals in the MRI system.
Mice were positioned in the MRI scanner as described above and localizer images were acquired. T1 maps were acquired using a FAIR-RARE non-selective inversion recovery sequence with static TR (18,000 ms) and TE (6.1 ms), and variable TI (30.5, 100, 200, 300, 500, 600, 700, 800, 900, 1000, 1100, 1200, 1300, 1400, 1600, 2000, 2500, 3000, 3500, 4000, 4500, 5000, and 6000 ms). Imaging parameters were as follows: field of view (FOV)=40×20 mm^2, matrix size(MTX)=512×133 pixels, number of slices=1, slice thickness=1.0 mm, and 1 average (total scan time=5 m 26 s).
Images were acquired at baseline, and 4, 24, and 48 hours after injection of 150 μL of imaging agent via the tail vein. One control animal was injected with saline; the remaining 9 animals were injected with 450 nmol Cu-Pz-Gd(III). Three animals were sacrificed after 4 hour, 24 hour, and 48 hour timepoints, respectively; the organs were collected for ICP-MS (described below) to measure biodistribution.
Mice were positioned in the MRI scanner as described above and localizer images were acquired. To improve signal to noise ratio, reduce respiratory artifacts, and increase tumor coverage, for this study we used a multi slice T1 map acquired using a variable repetition time saturation recovery sequence (RARE-VTR) with static TE (8.2 ms) and variable TR (175, 300, 600, 800, 1200, 2000, 4000 ms). Imaging parameters were as follows: FOV=10×7.5 mm, MTX=80×60, number of axial slices=5, slice thickness=1.0 mm, and 1 average (total scan time=6 min 48 sec). […]

[4] = Relaxation time measurements (longitudinal relaxivity r1); type: physicochemical; details: water, 1.41 T (60 MHz), 37° C.
From the text: The efficiency of a contrast agent in reducing the longitudinal relaxation time of water protons is defined in terms as relaxivity (mM^−1 s^−1) (14). It has been predicted by Solomon-Bloembergen-Morgan theory that a slow molecule tumbling of an MRI agent causes an increase in rotational correlation time, Tr, which in turn results in increase in relaxivity (14, 15). A common approach to increase relaxivity by slowing down the molecular tumbling is to attach Gd(III) complexes to a macromolecule through rigid linkages (12,16). The relaxivity of the monomeric DOTA-Gd(III) (DOTA is 1,4,7,10-tetraazacyclododecane-N,N,N″,N″-tetraacetic acid) used in the clinic is shown for comparison (17). […] Both the Zn-Pz-Gd(III) and Cu-Pz-Gd(III) had higher longitudinal relaxivity than DOTAGd(III).
Solutions of M-Pz-Gd(III) (M=Zn, Cu) conjugates were dissolved in 500 μL of filtered, deionized H20 (18.2 MΩ·cm) for T1 acquisition. Relaxation times were measured on a Bruker mq60 NMRanalyzer equipped with Minispec v2.51 Rev.00/NT software (Bruker Biospin, Billerica, Mass., USA) operating at 1.41 T (60 MHz) and 37° C. T1 relaxation times were measured using an inversion recovery pulse sequence (T1—ir_mb) using the following parameters: 4 scans per point, 10 data points for fitting, mono-exponential curve fitting, phase cycling, 10 ms first pulse separation, and a recycle delay and final pulse separation≧5 T1. The gadolinium concentrations of each solution were determined using ICP-MS. The inverse of the longitudinal relaxation time (1/ T1, s^−1) was plotted against gadolinium concentration (mM) and fitted to a straight line with an R^2>0.99. The slope of the fitted line was recorded as the relaxivity, r1.

Water solubility = type: physicochemical
Procedure: The pz platform is diol pz 285, which was prepared and activated for nucleophilic substitution by arenesulfonylation to produce bis-tosylate pz 286 as previously described (13). Subsequent nucleophilic substitution of pz 286 with excess sodium azide gave diazide pz 288, which was suitable for conjugation via cycloaddition reactions with the alkyne-functionalized Gd595. (Scheme 1). The use of catalytic copper(II) sulfate in this conjugation reaction partially metallates the pz core. To address this issue, pz 288 either was metallated with ZnCl2 prior to reaction with the alkyne or a stoichiometric amount of the […] catalyst was used to ensure that the pz core was completely cuprated. Standard cycloaddition reaction conditions were subsequently used to conjugate metallated pz diazides with Gd595 to produce Zn-Pz-Gd(III) and Cu-Pz-Gd(III) conjugates, which were isolated by preparative HPLC in 52% and 57% isolated yields, respectively. Trace amounts of Zn-Pz-Gd(III) were transmetallated to Cu-Pz-Gd(III), but this small amount was removed during purification.

log P [1]	Ionic r1 ([4]; per Gd(III))	Molecular r1 ([4]; per molecule (2 Gd(III)))	water solubility (Water solubility)	Compound	Molecular r1 ([2]; 1 Gd(III))	Ionic r1 [2]	tumor T1 over time [3]
−3.42				O=C([O-])CN1CCN(CC(=O)[O-])CCN(CC(=O)O)CCN(CC(=O)[O-])CC1.[Gd+3] [DOTA-Gd(III), reference compound]	3.1 mM^−1 S^−1	3.1 mM^−1 S^−1	dips transiently but returns quickly to baseline; also recorded: enters the tumor, but is cleared relatively rapidly; also recorded: initial decrease in tumor T1 followed by recovery of signal
−3.13	6.9 mM^−1 S^−1	13.8 mM^−1 S^−1	freely water soluble	Zn[Pz(C17H27N5O7Gd)2]. Pz=18,21-bis(2-(1H-1,2,3-triazole-4-yl) ethoxy)-tris-[1,4-dioxino[g,l,q](2R,3R)-2,3-dimethoxy-2,3-dimethyll 25H,27H-benzo[b]porphyrazine; C17H27N5O7Gd=N-methyl-2-aminoacetamide-4,7,10-tris(carboxymethyl)-1,4,7,10-tetraazacyclododecylgadolinium(III)) [Zn-Pz-Gd(III)]			
